Reference: patent US9566262B2, “Itch suppression by fucoxanthin” (THE RITSUMEIKAN TRUST, priority 2015, dated 2017)
“Also recorded” adds a separate entry of the source.

Key:
[1] = tested on: NC/Nga mice; assay: Swelling (length) of the auricular lymph node in NC/Nga mice; format: in vivo; settings: topical application for 5 weeks, PiCl-sensitized, vs Vaseline
Description: NC/Nga mice (5 weeks old, female) were purchased from Japan SLC, Inc. […] On day 12, day 19, day 26 and day 33 after starting application of Vaseline or fucoxanthin, 0.8% picryl chloride (PiCl) was further applied to the back skin of the mice. The behaviors of the mice were observed by video monitoring. On day 34 after starting application of Vaseline or fucoxanthin, bromodeoxyuridine (BrdU, Nacalai Tesque) (0.[…] weight) was intraperitoneally administered to the mice. At 5 weeks after starting application of Vaseline or fucoxanthin, the time each mouse spent for scratching behavior in 10 minutes was measured by video monitoring. Then, the mice were sacrificed and the auricular lymph node, blood and skin were obtained. Serum IgE content was determined by enzyme-linked immunosorbent assay (ELISA) using Mouse IgE Assay Kit (Morinaga Institute of Biological Science, Inc.). […] BrdU uptake was determined by ELISA using Cell Proliferation ELISA, BrdU (Colorimetric) (Roche Diagnostics K.K.). […] Also, serum IgE levels and swelling of the auricular lymph nodes of the mice were determined in the same manner as described in Example 2.

[2] = tested on: bone marrow-derived mast cells (BMMCs); assay: Degranulation of BMMCs, β-hexosaminidase release after anti-DNP-IgE / DNP-HSA stimulation; format: cell-based, mice; settings: pre-treated with 0.1 μM, 1 μM or 10 μM before DNP-HSA stimulation, vs DMSO
Procedure: The degranulation of BMMCs was evaluated by measuring β-hexosaminidase activity in the culture solution of the mature mast cells. Bone marrow cells obtained from 8-week-old female mice were cultured in a medium for conditioning containing interleukin-3 (IL-3) for 4 weeks to give mature mast cells. The mature mast cells thus prepared were cultured in 24-well plate (5×10^3 cells/well) overnight, and sensitized with 50 ng/mL anti-DNP-IgE (Sigma Chemicals) at 37° C. for 2 hours. The cells were rinsed by MT buffer (137 mmol/L NaCl, 2.7 mmol/L KCl, 1.8 mmol/L CaCl2, 1 mmol/L MgCl2.6H2O, 5.6 mmol/L glucose, 20 mmol/L HEPES, 0.1% BSA, pH7.3), and pre-treated with 0.1 μM, 1 μM or 10 μM fucoxanthin, or dimethyl sulfoxide (DMSO) for 10 minutes. Then, the cells were treated with 2.5 μg/mL DNP-labeled human serum albumin (Sigma Chemicals) at 37° C. for 30 minutes. After incubation, the supernatant was transferred to a 96-well plate and incubated with 3.3 mM p-nitrophenyl-2-acetamide-2-deoxy-β-glucopyranoside at 37° C. for 25 minutes. Absorbance at 405 nm was measured using microplate reader. The results are shown as percentage of total β-hexosaminidase.

[3] = tested on: NC/Nga mice; assay: Scratching behavior (itch) in PiCl-sensitized NC/Nga dermatitis model mice, video monitoring; format: in vivo
Description: On day 12, day 19, day 26 and day 33 after starting application of Vaseline or fucoxanthin, 0.8% picryl chloride (PiCl) was further applied to the back skin of the mice. The behaviors of the mice were observed by video monitoring. On day 34 after starting application of Vaseline or fucoxanthin, bromodeoxyuridine (BrdU, Nacalai Tesque) ([…]) was intraperitoneally administered to the mice. At 5 weeks after starting application of Vaseline or fucoxanthin, the time each mouse spent for scratching behavior in 10 minutes was measured by video monitoring. Then, the mice were sacrificed and the auricular lymph node, blood and skin were obtained. Serum IgE content was determined by enzyme-linked immunosorbent assay (ELISA) using Mouse IgE Assay Kit (Morinaga Institute of Biological Science, Inc.). […] BrdU uptake was determined by ELISA using Cell Proliferation ELISA, BrdU (Colorimetric) (Roche Diagnostics K.K.).
In the same manner as described in Example 2, Vaseline, fucoxanthin or tacrolimus and PiCl were applied to NC/Nga mice. At 5 weeks after starting application of fucoxanthin or tacrolimus, the time spent for scratching behavior per 10 minutes in the mice treated with fucoxanthin was measured and compared to that in the mice treated with tacrolimus. […]

SMILES: CC(=O)O[C@H]1CC(C)(C)C(=C=C/C(C)=C/C=C/C(C)=C/C=C/C=C(C)/C=C/C=C(\C)C(=O)C[C@@]23O[C@]2(C)C[C@@H](O)CC3(C)C)[C@](C)(O)C1 [fucoxanthin]
- swelling of the auricular lymph node (ear swelling) [1]: neither ear swelling (FIG. 9A) nor serum IgE level (FIG. 9B) were affected; also recorded: failed to attenuate lymph inflammation; also recorded: not affected
- release of β-hexosaminidase (degranulation) [2]: suppressed release of β-hexosaminidase in a dose-dependent manner
- time spent for scratching behavior in 10 minutes ([3]; applied daily to back skin (0.1% (w/w) fucoxanthin in Vaseline), PiCl sensitization, at 5 weeks, vs Vaseline-applied mice): attenuated; also recorded: remarkably shorter
- speed of action on itch compared with tacrolimus ([3]; topical application, PiCl-sensitized NC/Nga mice, scratching time per 10 minutes): faster-acting than tacrolimus
